From ChEMBL document CHEMBL3044966, “Photosynthesis limitations of grapevine after treatment with the fungicide fludioxonil” (J Agric Food Chem, 2008)

Experiments:
Vitis vinifera [1] = test: Inhibition of photosynthesis in Vitis vinifera cv. Pinot noir assessed as mitochondrial respiration in the light at 30 mM measured 7 days post compound application (reference value: 3.2 +/- 0.5 umol/m2/s); type: organism-based; conditions: in vivo, 168 h, 30000 µM
Vitis vinifera [2] = test: Inhibition of photosynthesis in Vitis vinifera cv. Pinot noir assessed as increase in ratio of apparent quantum yield of photo system 2 to apparent quantum yield yield of CO2 fixation at 1.2 to 30 mM measured 7 days post compound application; type: organism-based; parameters: scale not given: the % may be the effect or the level left; conditions: in vivo, 168 h, 30000 µM
Vitis vinifera [3] = test: Inhibition of photosynthesis in Vitis vinifera cv. Pinot noir assessed as light compensation point at 6 mM measured 7 days post compound application (reference value: 22.6 +/- 3.1 umol/mol); type: organism-based; conditions: in vivo, 168 h, 6000 µM
Vitis vinifera [4] = test: Effect on photochemical quenching in Vitis vinifera cv. Pinot noir at 1.2 to 30 mM measured 7 days post compound application; type: ADME, organism-based; conditions: in vivo, 168 h, 30000 µM
Vitis vinifera [5] = test: Effect on stomatal conductance in Vitis vinifera cv. Pinot noir at 1.2 to 30 mM measured 1 day post compound application; type: ADME, organism-based; conditions: in vivo, 24 h, 30000 µM
Vitis vinifera [6] = test: Inhibition of photosynthesis in Vitis vinifera cv. Pinot noir assessed as PPFD-saturated net CO2 assimilation rate at 1.2 mM measured 7 days post compound application (reference value: 8.9 +/- 1.5 umol/m2/s); type: organism-based; conditions: in vivo, 168 h, 1200 µM
Vitis vinifera [7] = test: Effect on net photosynthetic rate in Vitis vinifera cv. Pinot noir at 1.2 to 30 mM measured 2 to 4 days post compound application; type: ADME, organism-based; conditions: in vivo, 30000 µM
Vitis vinifera [8] = test: Inhibition of photosynthesis in Vitis vinifera cv. Pinot noir assessed as CO2 compensation point at 6 mM measured 7 days post compound application (reference value: 74.8 +/- 12.7 umol/mol); type: organism-based; conditions: in vivo, 168 h, 6000 µM
Vitis vinifera [9] = test: Effect on total nonphotochemical quenching in Vitis vinifera cv. Pinot noir at 1.2 to 30 mM measured 7 days post compound application; type: ADME, organism-based; conditions: in vivo, 168 h, 30000 µM
Vitis vinifera [10] = test: Inhibition of photosynthesis in Vitis vinifera cv. Pinot noir assessed as apparent quantum yield of CO2 fixation at 6 mM measured 7 days post compound application (reference value: 0.07 +/- 0.01 no unit) umol/m2/s); type: organism-based; conditions: in vivo, 168 h, 6000 µM
Vitis vinifera [11] = test: Increase in […] CO2 level in Vitis vinifera cv. Pinot noir at 1.2 mM measured 7 days post compound application; type: ADME, organism-based; conditions: in vivo, 168 h, 1200 µM
Vitis vinifera [12] = test: Increase in […] CO2 level in Vitis vinifera cv. Pinot noir at 30 mM measured 7 days post compound application; type: ADME, organism-based; conditions: in vivo, 168 h, 30000 µM
Vitis vinifera [13] = test: Inhibition of photosynthesis in Vitis vinifera cv. Pinot noir assessed as dark respiration at 6 mM measured 7 days post compound application (reference value: 1.6 +/- 0.0 umol/m2/s); type: organism-based; conditions: in vivo, 168 h, 6000 µM
Vitis vinifera [14] = test: Inhibition of photosynthesis in Vitis vinifera cv. Pinot noir assessed as ratio of apparent quantum yield of photo system 2 to apparent quantum yield yield of CO2 fixation at 6 mM measured 7 days post compound application (reference value: 10 +/- 1.7 no unit); type: organism-based; conditions: in vivo, 168 h, 6000 µM
Vitis vinifera [15] = test: Inhibition of photosynthesis in Vitis vinifera cv. Pinot noir assessed as apparent quantum yield of CO2 fixation at 1.2 mM measured 7 days post compound application (reference value: 0.07 +/- 0.01 no unit) umol/m2/s); type: organism-based; conditions: in vivo, 168 h, 1200 µM
Vitis vinifera [16] = test: Inhibition of photosynthesis in Vitis vinifera cv. Pinot noir assessed as intercellular CO2 concentration-saturated net CO2 assimilation rate at 1.2 mM measured 7 days post compound application (reference value: 11.3 +/- 0.8 umol/m2/s); type: organism-based; conditions: in vivo, 168 h, 1200 µM
Vitis vinifera [17] = test: Inhibition of photosynthesis in Vitis vinifera cv. Pinot noir assessed as intercellular CO2 concentration-saturated net CO2 assimilation rate at 6 mM measured 7 days post compound application (reference value: 11.3 +/- 0.8 umol/m2/s); type: organism-based; conditions: in vivo, 168 h, 6000 µM
Vitis vinifera [18] = test: Inhibition of photosynthesis in Vitis vinifera cv. Pinot noir assessed as increase in CO2 compensation point at 30 mM measured 7 days post compound application relative to untreated control; type: organism-based; conditions: in vivo, 168 h, 30000 µM
photosystem 2 [19] = test: Inhibition of photosynthesis in Vitis vinifera cv. Pinot noir assessed as reduction in relative quantum yield of photo system 2 at 30 mM measured 7 days post compound application relative to untreated control; type: organism-based; conditions: in vivo
Vitis vinifera [20] = test: Inhibition of photosynthesis in Vitis vinifera cv. Pinot noir assessed as in vivo maximum rate of rubisco carboxylation at 6 mM measured 7 days post compound application (reference value: 42.8 +/- 3.2 umol/m2/s); type: organism-based; conditions: 168 h, 6000 µM
Vitis vinifera [21] = test: Inhibition of photosynthesis in Vitis vinifera cv. Pinot noir assessed as dark respiration at 30 mM measured 7 days post compound application (reference value: 1.6 +/- 0.0 umol/m2/s); type: organism-based; conditions: in vivo, 168 h, 30000 µM
photosystem 2 [22] = test: Inhibition of photosynthesis in Vitis vinifera cv. Pinot noir assessed as reduction in relative quantum yield of photo system 2 at 6 mM measured 7 days post compound application relative to untreated control; type: organism-based; conditions: in vivo
Vitis vinifera [23] = test: Inhibition of photosynthesis in Vitis vinifera cv. Pinot noir assessed as apparent quantum yield of CO2 fixation at 30 mM measured 7 days post compound application (reference value: 0.07 +/- 0.01 no unit) umol/m2/s); type: organism-based; conditions: in vivo, 168 h, 30000 µM
Vitis vinifera [24] = test: Inhibition of photosynthesis in Vitis vinifera cv. Pinot noir assessed as in vivo maximum rate of rubisco carboxylation at 1.2 mM measured 7 days post compound application (reference value: 42.8 +/- 3.2 umol/m2/s); type: organism-based; conditions: 168 h, 1200 µM
Vitis vinifera [25] = test: Inhibition of photosynthesis in Vitis vinifera cv. Pinot noir assessed as PPFD-saturated net CO2 assimilation rate at 6 mM measured 7 days post compound application (reference value: 8.9 +/- 1.5 umol/m2/s); type: organism-based; conditions: in vivo, 168 h, 6000 µM
photosystem 2 [26] = test: Inhibition of photosynthesis in Vitis vinifera cv. Pinot noir assessed as reduction in relative quantum yield of photo system 2 at 1.2 mM measured 7 days post compound application relative to untreated control; type: organism-based; conditions: in vivo
Vitis vinifera [27] = test: Inhibition of photosynthesis in Vitis vinifera cv. Pinot noir assessed as ratio of apparent quantum yield of photo system 2 to apparent quantum yield yield of CO2 fixation at 30 mM measured 7 days post compound application (reference value: 10 +/- 1.7 no unit); type: organism-based; conditions: in vivo, 168 h, 30000 µM

## N#Cc1c[nH]cc1-c1cccc2c1OC(F)(F)O2 [FLUDIOXONIL]
Vitis vinifera [1]
  Activity: 12.6 micromol/m2/s
Vitis vinifera [2]
  Activity: 50%
Vitis vinifera [3]
  Activity: 27.7 umol/mol
Vitis vinifera [4]
  Activity: Non-toxic
Vitis vinifera [5]
  Activity: Non-toxic
Vitis vinifera [6]
  Activity: 7.7 micromol/m2/s
Vitis vinifera [7]
  Activity: Non-toxic
Vitis vinifera [8]
  Activity: 82.2 umol/mol
Vitis vinifera [9]
  Activity: Non-toxic
Vitis vinifera [10]
  Activity: 0.04
Vitis vinifera [11]
  Activity: 13%
Vitis vinifera [12]
  Activity: 20%
Vitis vinifera [13]
  Activity: 1.2 micromol/m2/s
Vitis vinifera [14]
  Ratio: 16.3
Vitis vinifera [15]
  Activity: 0.01
Vitis vinifera [16]
  Activity: 11.3 micromol/m2/s
Vitis vinifera [17]
  Activity: 11.5 micromol/m2/s
Vitis vinifera [18]
  fold change (FC): 3.3
Photosystem 2 [19]
  inhibition at 168 h, 30000 µM: 10%
Vitis vinifera [20]
  Activity: 44.1 micromol/m2/s
Vitis vinifera [21]
  Activity: 1.4 micromol/m2/s
Photosystem 2 [22]
  inhibition at 168 h, 6000 µM: 7%
Vitis vinifera [23]
  Activity: 0.04
Vitis vinifera [24]
  Activity: 38 micromol/m2/s
Vitis vinifera [25]
  Activity: 7.6 micromol/m2/s
Photosystem 2 [26]
  inhibition at 168 h, 1200 µM: 10%
Vitis vinifera [27]
  Ratio: 19.2
